From patent US20040072753A1, “Peptides for use in the treatment of alzheimer's disease” (priority 2000, published 2004)
Where a SMILES comes first, the peptide text is derived from it. Where no end group is shown, it is not given here. [ ]: non-standard residue; d: D form. pS = N[C@@H](COP(=O)(O)O)C(=O)O

What was measured:
[1] = test system: SP2/0-Ag-14 mouse myeloma cells; assay: Cytotoxicity of Aβ peptides, trypan blue dye exclusion; format: cell-based; details: test peptides 20 μM, 24 hours
Method: SP2/0-Ag-14 mouse myeloma cells were maintained in RPMI 1640 medium containing 10% fetal calf serum at 37° C. in a 5% CO2 humidified atmosphere. For cytotoxicity experiments 2×1 05 cells were plated in 24 well dishes in 1 ml PBS containing 0.1% BSA and test peptides (20 μM) for 24 hours. Cell viability was determined by trypan blue dye exclusion with at least 100 cells counted per well (Milton, Biochem. J. 344: 293-296 (1999)).

[2] = target: biotinylated Aβ 25-35 (Homo sapiens, UniProt P05067); assay: Binding of biotinylated Aβ 25-35 to CAβBP or EAβBP coated plates (ELISA); details: biotinylated peptide 200 pM
Method: Biotinylated Aβ1-42, Aβ12-28 and Aβ 25-35 (from SEQ ID NO. 2) were prepared using a LinKit-Biolink kit (ISL, Paignton, UK). ELISA plates were coated with CAβBP (catalase residues 400409) or EAβBD (ERAB residues 99-108) (1 μg ml^−1) in carbonate buffer and unoccupied sites blocked with 5% (w/v) dried milk. Biotinylated peptides (200 pM) were incubated alone, with control peptides or with unlabelled Aβ peptides in PBS (containing 0.1% BSA and 0.05% Tween-20) at 37° C. for 4 hours. After washing to remove unbound material, an alkaline phosphatase polymer-streptavidin conjugate (Sigma, Dorset, UK) was added and incubated at 37° C. for 2 hours. After washing to remove unbound material, p-nitrophenylphosphate substrate was added and absorbance at 405 nm determined. Affinity constants were determined by incubating catalase or CAβBP coated plates with biotinylated peptides (200 pM) plus Aβ peptides over a range of concentrations (0-100 nM) and detection of bound peptides was carried out by ELISA.

[3] = target: T1, catalase EC 1.11.1.6 from human erythrocytes (Homo sapiens, UniProt P04040); assay: Catalase enzyme activity, inhibition by Aβ peptides; format: biochemical; details: test peptides 2 μM
T1 construct: catalase EC 1.11.1.6 from human erythrocytes (Sigma, Dorset, UK) was used; purchased Sigma, Dorset, UK; host or cells: human erythrocytes
T1 sequence (P04040 2-527 limits assumed): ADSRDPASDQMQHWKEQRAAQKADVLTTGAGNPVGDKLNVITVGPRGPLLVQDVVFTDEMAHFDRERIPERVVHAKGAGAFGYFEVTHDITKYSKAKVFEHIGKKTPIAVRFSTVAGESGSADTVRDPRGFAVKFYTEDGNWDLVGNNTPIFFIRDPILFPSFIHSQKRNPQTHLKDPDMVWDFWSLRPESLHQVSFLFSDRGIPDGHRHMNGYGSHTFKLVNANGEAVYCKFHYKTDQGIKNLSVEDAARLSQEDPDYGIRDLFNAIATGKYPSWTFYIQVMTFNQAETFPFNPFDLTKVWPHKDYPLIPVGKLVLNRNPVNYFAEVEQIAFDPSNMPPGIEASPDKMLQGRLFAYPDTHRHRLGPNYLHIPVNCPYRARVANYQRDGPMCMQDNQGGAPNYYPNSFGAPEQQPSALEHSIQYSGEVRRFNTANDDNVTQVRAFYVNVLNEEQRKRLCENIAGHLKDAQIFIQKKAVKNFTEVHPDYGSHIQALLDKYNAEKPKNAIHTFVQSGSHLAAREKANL
Method: For catalase activity catalase EC 1.11.1.6 from human erythrocytes (Sigma, Dorset, UK) was used for all incubation experiments. Activity of Catalase (5kU I^−1) incubated with test peptides (2 μM) was determined after incubation in 60 mM sodium-potassium phosphate buffer at 37° C. in a total volume of 100 μl. After incubation catalase activity was determined by mixing 50 μl sample with 50 μl substrate (6.5 μmol H2O2 in phosphate buffer) for 60 secs, adding 100 μl of 32.4 mM ammonium molybdate and measurement of absorbance change at 405 nm. Catalase activity was calculated from a standard curve (0-10OkU I^−1) using purified human catalase of known activity (Milton, Biochem. J. 344: 293-296 (1999)).

[4] = target: biotinylated Aβ 1-42 (Homo sapiens, UniProt P05067); assay: Binding of biotinylated Aβ 1-42 to CAβBP or EAβBP coated plates (ELISA, Scatchard); details: biotinylated peptide 200 pM
Method: After washing to remove unbound material, an alkaline phosphatase polymer-streptavidin conjugate (Sigma, Dorset, UK) was added and incubated at 37° C. for 2 hours. After washing to remove unbound material, p-nitrophenylphosphate substrate was added and absorbance at 405 nm determined.

[5] = target: recombinant human cdc2 (Homo sapiens, UniProt P06493); assay: Binding of biotinylated Aβ peptides to recombinant human cdc2 coated plates (ELISA); details: for binding to human cdc2: biotinylated peptide 200 pM, 37° C. 4 hours
Method: After washing to remove unbound material, an alkaline phosphatase polymer-streptavidin conjugate (Sigma, Dorset, UK) was added and incubated at 37° C. for 2 hours.

[6] = target: T2, recombinant p34-cdc2/cyclin B1 (Homo sapiens, UniProt P06493); assay: Phosphorylation of biotinylated Aβ peptides by recombinant p34-cdc2/cyclin B1 (32P incorporation); format: biochemical; details: for phosphorylation by cdc2 (incorporation of 32P from γ32P-ATP): 25 μM biotinylated peptide, 10 min at 30° C.
T2 construct: purchased Promega, UK
Description: (§1) The membrane was washed four times in 2 M NaCl, followed by four times in 2 M NaCl containing 1% (v/v) H3PO4 and finally twice in deionized H2O to remove unbound material.

[7] = test system: Human NT-2 neurons; assay: Cytotoxicity assay, MTT reduction in human NT-2 neurons; format: cell-based; details: for effect on MTT utilisation: 24 h incubation
Method: In order to assess the effects of Aβ phosphorylation on the cytotoxic properties of Aβ peptides, a series of Aβ 17-35 derivatives were synthesised. The 17-35 region of Aβ contains the serine residue (serine 26) which is proposed to be phosphorylated by p34-cdc2, and also contains the ERAB binding (17-20) and cytotoxic domains (31-35) thought to play roles in Aβ cytotoxicity. The peptides were tested in a cytotoxicity assay as follows. Human NT-2 (NTera2/D1) precursor cells were propagated in DMEM/F12 medium supplemented with retinoic acid for 5-6 weeks prior to harvesting and replating in the presence of mitotic inhibitors, to generate post-mitotic Human NT-2 neurons. For cytotoxicity experiments, 5×10^3 cells/100 μl, medium were plated in Poly-D-lysine coated 96 well plates. Test peptides (20 μM) were added directly to culture medium prior to incubation for 24 h. Cell viability was determined by measurement of MTT (3-(4,5-dimethylthiazol-2-yl)-2,5-diphenyl tetrazolium bromide) reduction (Shearman, Methods Enzymol. 309: 716-723 (1999)). After incubation with peptides MTT (10 μl: 12 mM stock) was added and cells incubated for a further 4 hours. Cell lysis buffer [100 μl/well; 20% (v/v) SDS, 50% (v/v) N,N-dimethylformamide, pH 4.7] was added and, after repeated pipetting to lyse cells, calorimetric determination of MTT formazan product formation was determined by measuring the absorbance change at 540 nm. Control levels in the absence of peptide were taken as 100%, with the absorbance in the absence of cells taken as 0%.

[8] = test system: Human NT-2 neurons; assay: Immunoassay of ir-pSAβ and ir-Aβ in extracts of NT-2 neurons exposed to Aβ 17-35 derivatives; format: cell-based; details: for levels of immunoreactive Aβ (ir-Aβ) in exposed cells: cell extracts; for ir-pSAβ in extracts of exposed cells: versus control cells
Method: To establish whether Aβ is phosphorylated in the Alzheimer's brain, Alzheimer disease brain sections were obtained from Novagen Inc (Madison, Wis., USA. Cat No: 70298-3; Lot No: A301036). Sections were deparaffinised and extracted in DEA buffer supplemented with 0.1 mM sodium vanadate. Extracts from NT-2 neurons were also prepared using the same buffer. Using a polyclonal anti-AB 15-30 antiserum plus Protein-A agarose, the Aβ was immunoprecipitated. The resultant extracts were further purified using a Sep-Pak C18 extraction step. Columns were pre-wetted with methanol and 0.5M acetic acid and the samples were applied in 20% acetonitrile in 0.1% TFA. […] After drying under a stream of nitrogen, samples were resuspended in appropriate buffer. For SDS-PAGE analysis, samples were resuspended in gel loading buffer and run on a 15% acrylamide gel. After immunoblotting onto nitrocellulose membranes, the blots were stained with anti-Aβ, anti-phosphoserine, anti-phosphotyrosine or anti-phosphothreonine antibodies. Bands were visualized with anti-mouse or anti-rabbit IgG-HRP conjugates and TMB membrane substrate. […] ELISA plates were coated with anti-phosphoserine antiserum for pSAβ determination and blocked with 5% dried milk. Samples or synthetic Aβ standards (Aβ 17-35 pS) were applied in PBS containing 0.1% BSA plus 0.05% Tween 20. Monoclonal antibody ALI-01 was added and incubated for 2 hrs. After washing to remove unbound material, ir-pSAβ was detected using an anti-rabbit IgG-HRP conjugate and TMB substrate. A similar assay in which the pS antibody was replaced with a polyclonal anti-Aβ antibody was used to measure Aβ levels.

[9] = target: T3, cdc2/cyclin B1 (Homo sapiens, UniProt P06493+P14635); assay: cdc2/cyclin B1 phosphorylation of biotinylated histone H1 substrate peptide; format: biochemical
T3 construct: purchased Promega, UK
Description: as §1
Since Aβ binds to both the cdc2 and cyclin B1 components of the active enzyme it is possible that Aβ modulates the activity of the kinase.

Sequence of recombinant human cdc2 (P06493 whole entry): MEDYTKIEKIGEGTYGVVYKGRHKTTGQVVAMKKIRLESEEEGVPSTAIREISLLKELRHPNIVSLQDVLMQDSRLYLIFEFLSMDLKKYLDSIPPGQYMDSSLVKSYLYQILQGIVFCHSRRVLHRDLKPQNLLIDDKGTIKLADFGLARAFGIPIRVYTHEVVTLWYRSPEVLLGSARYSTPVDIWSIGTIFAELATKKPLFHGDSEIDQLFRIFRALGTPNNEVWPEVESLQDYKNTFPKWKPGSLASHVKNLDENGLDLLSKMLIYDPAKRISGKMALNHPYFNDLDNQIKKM
T2 sequence (P06493 whole entry): as above
T2 sequence (P14635 whole entry partner): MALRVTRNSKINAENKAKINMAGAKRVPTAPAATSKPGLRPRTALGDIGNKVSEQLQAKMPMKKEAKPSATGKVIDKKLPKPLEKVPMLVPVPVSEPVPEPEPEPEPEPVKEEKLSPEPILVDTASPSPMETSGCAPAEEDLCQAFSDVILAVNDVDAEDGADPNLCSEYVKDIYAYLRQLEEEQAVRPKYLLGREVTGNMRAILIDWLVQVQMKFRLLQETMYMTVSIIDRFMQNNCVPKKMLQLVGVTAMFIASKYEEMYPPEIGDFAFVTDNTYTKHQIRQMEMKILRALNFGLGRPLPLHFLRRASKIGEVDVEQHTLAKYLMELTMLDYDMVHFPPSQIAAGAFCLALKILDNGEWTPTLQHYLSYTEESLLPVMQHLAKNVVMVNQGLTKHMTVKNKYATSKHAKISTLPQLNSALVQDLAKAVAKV
T3 sequence (P06493 whole entry): as the sequence (P06493 whole entry) above
T3 sequence (P14635 whole entry): as the sequence (P14635 whole entry partner) above
Sequence of biotinylated Aβ 1-42 (P05067 672-713 limits assumed): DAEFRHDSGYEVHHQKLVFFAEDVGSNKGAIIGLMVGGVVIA

CC(C)C[C@H](NC(=O)[C@H](CC(C)C)NC(=O)[C@H](CCCNC(=N)N)NC(=O)[C@H](CCCCN)NC(=O)[C@H](CCCCN)NC(=O)[C@H](Cc1c[nH]cn1)NC(=O)[C@H](CC(N)=O)NC(=O)[C@H](Cc1ccccc1)NC(=O)[C@@H](NC(=O)[C@@H](N)C(C)C)C(C)C)C(=O)O [AβAS(F) 14-23] (H-VVFNHKKRLL-OH)
block of the cytotoxicity of Aβ 1-42 [1]: able to block
block of the cytotoxicity of Aβ fragments containing residues 17-35 [1]: able to block

CC(C)C[C@H](N)C(=O)N[C@@H](Cc1ccccc1)C(=O)N1CCC[C@H]1C(=O)N[C@@H](CCCNC(=N)N)C(=O)N[C@@H](Cc1ccc(O)cc1)C(=O)N[C@@H](Cc1ccc(O)cc1)C(=O)N1CCC[C@H]1C(=O)N[C@@H](CCC(=O)O)C(=O)N[C@@H](Cc1ccc(O)cc1)C(=O)N[C@@H](Cc1c[nH]cn1)C(=O)O [AβAS(F) 27-36] (H-LFPRYYPEYH-OH)
block of the cytotoxicity of Aβ 1-42 [1]: able to block
block of the cytotoxicity of Aβ fragments containing residues 25-35 [1]: able to block

C[C@H](NC(=O)CN)C(=O)N1CCC[C@H]1C(=O)N[C@@H](CC(N)=O)C(=O)N[C@@H](Cc1ccc(O)cc1)C(=O)N[C@@H](Cc1ccc(O)cc1)C(=O)N1CCC[C@H]1C(=O)N[C@@H](CC(N)=O)C(=O)N[C@@H](CO)C(=O)N[C@@H](Cc1ccccc1)C(=O)O [CAβBP]
binding of biotinylated Aβ 25-35 [2]: specifically bound
block of the cytotoxicity of Aβ 1-42 [1]: able to block
block of the cytotoxicity of Aβ fragments containing residues 31-35 [1]: able to block
block of the inhibition of catalase enzyme activity by Aβ 1-42 [3]: able to block
block of the inhibition of catalase enzyme activity by Aβ fragments containing residues 31-35 [3]: able to block
binding of biotinylated Aβ 1-42 [4]: specifically bound

Aβ 1-42: major form of Amyloid-β protein, residues 1-42
binding to human cdc2 [5]: bound
phosphorylation by cdc2 (incorporation of 32P from γ32P-ATP) [6]: incorporated

Aβ 1-43: Amyloid-β 1-43 region, SEQ ID NO. 2
binding to human cdc2 [5]: binds to
phosphorylation by cdc2 (incorporation of 32P from γ32P-ATP) [6]: phosphorylated

Aβ 17-28: Aβ fragment, residues 17-28 (LVFFAEDVGSNK)
inhibition of the binding of Aβ to cdc2 ([5]; biotinylated Aβ 1-40 (FIG. 5)): inhibited
inhibition of phosphorylation of Aβ [6]: inhibited

Aβ 17-35 S26A: Aβ 17-35 in which the serine residue for phosphorylation has been mutated to an alanine residue (LVFFAEDVGANKGAIIGLM; Amyloid-beta protein 42; UniProt P05067 688-706, looked up, variant S26A)
effect on MTT utilisation [7]: no effect
levels of immunoreactive Aβ (ir-Aβ) in exposed cells [8]: increased levels
ir-pSAβ in extracts of exposed cells [8]: no difference to control cells

Aβ 17-35 pS26: Aβ 17-35 peptide with a phosphorylated serine residue (LVFFAEDVG[pS]NKGAIIGLM; UniProt P05067 688-706, looked up, fragment)
potency in MTT reduction compared with the non-phosphorylated peptide [7]: significantly more potent
effect on MTT utilisation [7]: dose dependent reduction
levels of immunoreactive Aβ (ir-Aβ) in exposed cells [8]: increased levels
ir-pSAβ in extracts of exposed cells [8]: no difference to control cells

Aβ 17-35: Aβ fragment 17-35 containing serine 26, ERAB binding and cytotoxic domains (LVFFAEDVGSNKGAIIGLM)
effect on MTT utilisation [7]: dose dependent reduction
levels of immunoreactive Aβ (ir-Aβ) in exposed cells [8]: increased levels
ir-pSAβ in extracts of exposed cells [8]: increased amounts
effect on phosphorylation of the H1 peptide by cdc2/cyclin B1 [9]: increased

Aβ 31-35: shortest cytotoxic form of Aβ (IIGLM)
effect on phosphorylation of the H1 peptide by cdc2/cyclin B1 [9]: increased

CDKP1: synthetic peptide corresponding to cdc2 residues 119-133 (CHSRRVLHRDLKPQN)
inhibition of phosphorylation of Aβ [6]: inhibited

PKTPKKAKKL (listed as Homo sapiens) [H1 peptide]
Km ([6]; substrate of cdc2/cyclin B1, read-out: Michaelis constant (KM) for the phosphorylation): 2.7 µM
